Assay results reported in ChEMBL document CHEMBL4811298, “Discovery of novel class of histone deacetylase inhibitors as potential anticancer agents” (Bioorg Med Chem, 2021).
Calls of active or inactive are those of the source. The calls are words filed in the database; no cut-off is given here.

How the values were obtained:
[1] = system: MCF7; test: Upregulation of HDAC6 gene expression in human MCF7 cells at 3 uM incubated for 24 hrs by whole transcriptome analysis; type: functional, cell-based
[2] = system: MCF7; test: Upregulation of HDAC10 gene expression in human MCF7 cells at 3 uM incubated for 24 hrs by whole transcriptome analysis; type: functional, cell-based
[3] = system: MCF7; test: Upregulation of SIRT5 gene expression in human MCF7 cells at 3 uM incubated for 24 hrs by whole transcriptome analysis; type: functional, cell-based
[4] = system: MCF7; test: Induction of apoptosis in human MCF7 cells assessed as downregulation of c-Myc protein expression at 1 to 3 uM measured after 48 hrs western blot analysis; type: functional, cell-based; settings: dose 1-3 µM
[5] = system: MCF7; test: Upregulation of RELA (p65 ) gene expression in human MCF7 cells at 3 uM incubated for 24 hrs by whole transcriptome analysis; type: functional, cell-based
[6] = system: MCF7; test: Upregulation of HDAC2 gene expression in human MCF7 cells at 3 uM incubated for 24 hrs by whole transcriptome analysis; type: functional, cell-based
[7] = system: MCF7; test: Upregulation of HDAC4 gene expression in human MCF7 cells at 3 uM incubated for 24 hrs by whole transcriptome analysis; type: functional, cell-based
[8] = system: MCF7; test: Upregulation of NFkB2 gene expression in human MCF7 cells at 3 uM incubated for 24 hrs by whole transcriptome analysis; type: functional, cell-based
[9] = target: T1, Histone deacetylase 5 (Homo sapiens, UniProt Q9UQL6); test: Inhibition of N-terminal GST-tagged human recombinant full length HDAC5 expressed in baculovirus-infected Sf9 cells assessed as reduction in 7-amino-4-methylcoumarin release measured every 5 mins by fluorescence based analysis
[10] = system: MCF7; test: Upregulation of SIRT7 gene expression in human MCF7 cells at 3 uM incubated for 24 hrs by whole transcriptome analysis; type: functional, cell-based
[11] = system: MCF7; test: Upregulation of NFkB1 gene expression in human MCF7 cells at 3 uM incubated for 24 hrs by whole transcriptome analysis; type: functional, cell-based
[12] = system: MCF7; test: Upregulation of HDAC8 gene expression in human MCF7 cells at 3 uM incubated for 24 hrs by whole transcriptome analysis; type: functional, cell-based
[13] = target: Histone deacetylase 1 (Homo sapiens, UniProt Q13547); test: (§1) Inhibition of C-terminal FLAG/His-tagged human recombinant HDAC1 (1 to 482 residues) expressed in baculovirus-infected Sf9 cells assessed as reduction in 7-amino-4-methylcoumarin release using fluorogenic HDAC substrate 3 measured every 5 mins by fluorescence based analysis
[14] = system: MCF7; test: Upregulation of SIRT6 gene expression in human MCF7 cells at 3 uM incubated for 24 hrs by whole transcriptome analysis; type: functional, cell-based
[15] = system: MCF7; test: Induction of cell cycle arrest in human MCF7 cells assessed as accumulation at subG1 phase at 1 uM incubated for 24 to 72 hrs by PI staining based flow cytometric analysis; type: functional; settings: time 24-72 hrs
[16] = system: MCF7; test: Upregulation of SIRT2 gene expression in human MCF7 cells at 3 uM incubated for 24 hrs by whole transcriptome analysis; type: functional, cell-based
[17] = system: MCF7; test: Upregulation of SIRT4 gene expression in human MCF7 cells at 3 uM incubated for 24 hrs by whole transcriptome analysis; type: functional, cell-based
[18] = system: MCF7; test: Upregulation of HDAC3 gene expression in human MCF7 cells at 3 uM incubated for 24 hrs by whole transcriptome analysis; type: functional, cell-based
[19] = system: MCF7; test: Induction of cell cycle arrest in human MCF7 cells assessed as accumulation at G2/M phase at 1 uM incubated for 24 hrs by PI staining based flow cytometric analysis; type: functional
[20] = target: T2, Histone deacetylase 7 (Homo sapiens, UniProt Q8WUI4); test: Inhibition of N-terminal GST-tagged human HDAC7 (518 to end residues) expressed in baculovirus-infected Sf9 cells assessed as reduction in 7-amino-4-methylcoumarin release measured every 5 mins by fluorescence based analysis
T2 sequence (Q8WUI4 whole entry): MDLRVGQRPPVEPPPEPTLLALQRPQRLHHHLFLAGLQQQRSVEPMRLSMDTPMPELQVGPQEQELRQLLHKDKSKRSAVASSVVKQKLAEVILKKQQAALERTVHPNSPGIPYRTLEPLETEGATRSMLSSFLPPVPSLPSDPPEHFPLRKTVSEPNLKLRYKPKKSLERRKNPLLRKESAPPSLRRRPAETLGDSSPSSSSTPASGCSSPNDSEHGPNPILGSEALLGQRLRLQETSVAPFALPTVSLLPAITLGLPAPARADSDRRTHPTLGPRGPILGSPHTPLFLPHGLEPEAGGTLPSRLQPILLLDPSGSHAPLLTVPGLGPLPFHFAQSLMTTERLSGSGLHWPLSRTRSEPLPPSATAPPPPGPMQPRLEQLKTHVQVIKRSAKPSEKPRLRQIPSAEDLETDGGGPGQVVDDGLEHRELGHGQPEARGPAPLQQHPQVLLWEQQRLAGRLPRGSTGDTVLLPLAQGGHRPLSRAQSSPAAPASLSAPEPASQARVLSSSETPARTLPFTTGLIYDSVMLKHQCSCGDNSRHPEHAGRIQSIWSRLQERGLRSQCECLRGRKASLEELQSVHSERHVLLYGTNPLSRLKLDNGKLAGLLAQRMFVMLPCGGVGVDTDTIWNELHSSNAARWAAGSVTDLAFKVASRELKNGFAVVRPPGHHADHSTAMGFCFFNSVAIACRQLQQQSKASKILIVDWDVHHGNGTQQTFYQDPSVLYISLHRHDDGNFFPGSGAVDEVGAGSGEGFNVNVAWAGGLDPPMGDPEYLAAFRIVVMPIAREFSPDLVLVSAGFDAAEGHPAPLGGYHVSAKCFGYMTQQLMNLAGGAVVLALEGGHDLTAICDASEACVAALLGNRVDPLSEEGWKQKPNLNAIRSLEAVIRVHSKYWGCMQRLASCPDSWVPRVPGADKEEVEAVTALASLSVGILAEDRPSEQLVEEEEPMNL

[21] = system: MCF7; test: Upregulation of SIRT3 gene expression in human MCF7 cells at 3 uM incubated for 24 hrs by whole transcriptome analysis; type: functional, cell-based
[22] = system: MCF7; test: Upregulation of HDAC7 gene expression in human MCF7 cells at 3 uM incubated for 24 hrs by whole transcriptome analysis; type: functional, cell-based
[23] = system: MCF7; test: Upregulation of HDAC1 gene expression in human MCF7 cells at 3 uM incubated for 24 hrs by whole transcriptome analysis; type: functional, cell-based
[24] = system: MCF7; test: Induction of cell cycle arrest in human MCF7 cells assessed as accumulation at G1/S phase at 1 uM incubated for 4 hrs by PI staining based flow cytometric analysis; type: functional
[25] = system: MCF7; test: Upregulation of SIRT1 gene expression in human MCF7 cells at 3 uM incubated for 24 hrs by whole transcriptome analysis; type: functional, cell-based
[26] = system: MCF7; test: Upregulation of RELB gene expression in human MCF7 cells at 3 uM incubated for 24 hrs by whole transcriptome analysis; type: functional, cell-based
[27] = target: T1, Histone deacetylase 5; test: Potency index, ratio of vorinostat IC50 to test compound IC50 for Inhibition of N-terminal GST-tagged human recombinant full length HDAC5 expressed in baculovirus-infected Sf9 cells assessed as reduction in 7-amino-4-methylcoumarin release measured every 5 mins by fluorescence based analysis
[28] = system: MCF7; test: Induction of apoptosis in human MCF7 cells assessed as increase in caspase 3/7 activity at 1 to 3 uM measured after 48 hrs by ELISA; type: functional, cell-based; settings: dose 1-3 µM
[29] = target: Histone deacetylase 3/Nuclear receptor corepressor 2 (HDAC3/NCoR2) (Homo sapiens, UniProt O15379); test: as §1, with “His-tagged” for “FLAG/His-tagged”, “full length HDAC3” for “HDAC1”, “428 residues)/N-terminal GST-tagged human recombinant NCOR2 (395 to 489” for “482”
[30] = target: Histone deacetylase 2 (Homo sapiens, UniProt Q92769); type: cell-based, Sf9
[31] = target: Histone deacetylase 4 (Homo sapiens, UniProt P56524); test: Inhibition of N-terminal GST-tagged/C-terminal His-tagged human recombinant HDAC4 (627 to 1084 residues) expressed in baculovirus-infected Sf9 cells assessed as reduction in 7-amino-4-methylcoumarin release measured every 5 mins by fluorescence based analysis
[32] = system: MCF7; test: Upregulation of HDAC11 gene expression in human MCF7 cells at 3 uM incubated for 24 hrs by whole transcriptome analysis; type: functional, cell-based
[33] = system: MCF7; test: Upregulation of HDAC5 gene expression in human MCF7 cells at 3 uM incubated for 24 hrs by whole transcriptome analysis; type: functional, cell-based
[34] = system: MCF7; test: Upregulation of c-REL gene expression in human MCF7 cells at 3 uM incubated for 24 hrs by whole transcriptome analysis; type: functional, cell-based
[35] = target: Histone deacetylase 9 (Homo sapiens, UniProt Q9UKV0); test: Inhibition of C-terminal His-tagged human HDAC9 (604 to 1066 residues) expressed in baculovirus-infected Sf9 cells assessed as reduction in 7-amino-4-methylcoumarin release measured every 5 mins by fluorescence based analysis

T1 sequence (Q9UQL6 whole entry): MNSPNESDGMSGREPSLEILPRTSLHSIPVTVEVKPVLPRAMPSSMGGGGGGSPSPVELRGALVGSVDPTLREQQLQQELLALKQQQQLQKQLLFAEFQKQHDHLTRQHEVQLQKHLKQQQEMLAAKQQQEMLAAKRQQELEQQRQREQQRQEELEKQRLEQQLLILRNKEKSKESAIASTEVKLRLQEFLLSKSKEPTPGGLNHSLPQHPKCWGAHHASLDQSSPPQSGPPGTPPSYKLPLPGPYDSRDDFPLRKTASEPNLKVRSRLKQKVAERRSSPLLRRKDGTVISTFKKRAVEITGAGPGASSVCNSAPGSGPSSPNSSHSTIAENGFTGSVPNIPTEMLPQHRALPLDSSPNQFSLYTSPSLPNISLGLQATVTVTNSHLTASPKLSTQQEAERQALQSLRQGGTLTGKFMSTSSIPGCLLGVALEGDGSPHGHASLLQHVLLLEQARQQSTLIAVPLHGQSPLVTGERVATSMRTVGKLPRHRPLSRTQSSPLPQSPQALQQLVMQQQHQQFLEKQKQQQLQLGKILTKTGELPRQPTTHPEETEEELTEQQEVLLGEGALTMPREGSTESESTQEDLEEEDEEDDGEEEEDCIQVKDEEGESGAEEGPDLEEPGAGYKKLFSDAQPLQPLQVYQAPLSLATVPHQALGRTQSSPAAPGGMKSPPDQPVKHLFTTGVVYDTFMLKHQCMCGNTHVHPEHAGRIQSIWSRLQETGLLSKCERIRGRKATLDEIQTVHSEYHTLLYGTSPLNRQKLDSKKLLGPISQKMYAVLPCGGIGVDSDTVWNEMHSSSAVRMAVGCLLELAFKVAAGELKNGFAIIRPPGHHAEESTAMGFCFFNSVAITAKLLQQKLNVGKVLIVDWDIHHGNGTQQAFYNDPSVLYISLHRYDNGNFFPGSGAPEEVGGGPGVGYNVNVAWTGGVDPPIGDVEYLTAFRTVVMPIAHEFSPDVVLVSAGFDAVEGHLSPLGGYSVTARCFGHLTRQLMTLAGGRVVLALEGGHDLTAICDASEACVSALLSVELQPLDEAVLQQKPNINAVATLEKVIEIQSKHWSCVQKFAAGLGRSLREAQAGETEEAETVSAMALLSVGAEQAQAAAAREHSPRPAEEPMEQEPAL
Chain of Histone deacetylase 3/Nuclear receptor corepressor 2 (HDAC3/NCoR2) (O15379 whole entry): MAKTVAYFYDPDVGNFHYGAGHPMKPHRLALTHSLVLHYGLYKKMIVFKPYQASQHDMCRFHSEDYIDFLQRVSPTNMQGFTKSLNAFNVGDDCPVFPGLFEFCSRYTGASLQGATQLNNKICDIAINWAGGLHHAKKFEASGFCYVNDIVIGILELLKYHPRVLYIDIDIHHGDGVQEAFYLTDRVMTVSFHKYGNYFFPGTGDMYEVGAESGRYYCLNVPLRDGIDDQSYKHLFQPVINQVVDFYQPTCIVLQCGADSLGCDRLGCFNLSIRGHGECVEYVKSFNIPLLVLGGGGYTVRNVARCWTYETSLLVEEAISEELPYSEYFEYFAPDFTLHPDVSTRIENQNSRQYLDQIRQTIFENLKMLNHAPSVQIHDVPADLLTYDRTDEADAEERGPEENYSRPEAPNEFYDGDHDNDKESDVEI
Chain of Histone deacetylase 3/Nuclear receptor corepressor 2 (HDAC3/NCoR2) (Q9Y618 whole entry, further chain): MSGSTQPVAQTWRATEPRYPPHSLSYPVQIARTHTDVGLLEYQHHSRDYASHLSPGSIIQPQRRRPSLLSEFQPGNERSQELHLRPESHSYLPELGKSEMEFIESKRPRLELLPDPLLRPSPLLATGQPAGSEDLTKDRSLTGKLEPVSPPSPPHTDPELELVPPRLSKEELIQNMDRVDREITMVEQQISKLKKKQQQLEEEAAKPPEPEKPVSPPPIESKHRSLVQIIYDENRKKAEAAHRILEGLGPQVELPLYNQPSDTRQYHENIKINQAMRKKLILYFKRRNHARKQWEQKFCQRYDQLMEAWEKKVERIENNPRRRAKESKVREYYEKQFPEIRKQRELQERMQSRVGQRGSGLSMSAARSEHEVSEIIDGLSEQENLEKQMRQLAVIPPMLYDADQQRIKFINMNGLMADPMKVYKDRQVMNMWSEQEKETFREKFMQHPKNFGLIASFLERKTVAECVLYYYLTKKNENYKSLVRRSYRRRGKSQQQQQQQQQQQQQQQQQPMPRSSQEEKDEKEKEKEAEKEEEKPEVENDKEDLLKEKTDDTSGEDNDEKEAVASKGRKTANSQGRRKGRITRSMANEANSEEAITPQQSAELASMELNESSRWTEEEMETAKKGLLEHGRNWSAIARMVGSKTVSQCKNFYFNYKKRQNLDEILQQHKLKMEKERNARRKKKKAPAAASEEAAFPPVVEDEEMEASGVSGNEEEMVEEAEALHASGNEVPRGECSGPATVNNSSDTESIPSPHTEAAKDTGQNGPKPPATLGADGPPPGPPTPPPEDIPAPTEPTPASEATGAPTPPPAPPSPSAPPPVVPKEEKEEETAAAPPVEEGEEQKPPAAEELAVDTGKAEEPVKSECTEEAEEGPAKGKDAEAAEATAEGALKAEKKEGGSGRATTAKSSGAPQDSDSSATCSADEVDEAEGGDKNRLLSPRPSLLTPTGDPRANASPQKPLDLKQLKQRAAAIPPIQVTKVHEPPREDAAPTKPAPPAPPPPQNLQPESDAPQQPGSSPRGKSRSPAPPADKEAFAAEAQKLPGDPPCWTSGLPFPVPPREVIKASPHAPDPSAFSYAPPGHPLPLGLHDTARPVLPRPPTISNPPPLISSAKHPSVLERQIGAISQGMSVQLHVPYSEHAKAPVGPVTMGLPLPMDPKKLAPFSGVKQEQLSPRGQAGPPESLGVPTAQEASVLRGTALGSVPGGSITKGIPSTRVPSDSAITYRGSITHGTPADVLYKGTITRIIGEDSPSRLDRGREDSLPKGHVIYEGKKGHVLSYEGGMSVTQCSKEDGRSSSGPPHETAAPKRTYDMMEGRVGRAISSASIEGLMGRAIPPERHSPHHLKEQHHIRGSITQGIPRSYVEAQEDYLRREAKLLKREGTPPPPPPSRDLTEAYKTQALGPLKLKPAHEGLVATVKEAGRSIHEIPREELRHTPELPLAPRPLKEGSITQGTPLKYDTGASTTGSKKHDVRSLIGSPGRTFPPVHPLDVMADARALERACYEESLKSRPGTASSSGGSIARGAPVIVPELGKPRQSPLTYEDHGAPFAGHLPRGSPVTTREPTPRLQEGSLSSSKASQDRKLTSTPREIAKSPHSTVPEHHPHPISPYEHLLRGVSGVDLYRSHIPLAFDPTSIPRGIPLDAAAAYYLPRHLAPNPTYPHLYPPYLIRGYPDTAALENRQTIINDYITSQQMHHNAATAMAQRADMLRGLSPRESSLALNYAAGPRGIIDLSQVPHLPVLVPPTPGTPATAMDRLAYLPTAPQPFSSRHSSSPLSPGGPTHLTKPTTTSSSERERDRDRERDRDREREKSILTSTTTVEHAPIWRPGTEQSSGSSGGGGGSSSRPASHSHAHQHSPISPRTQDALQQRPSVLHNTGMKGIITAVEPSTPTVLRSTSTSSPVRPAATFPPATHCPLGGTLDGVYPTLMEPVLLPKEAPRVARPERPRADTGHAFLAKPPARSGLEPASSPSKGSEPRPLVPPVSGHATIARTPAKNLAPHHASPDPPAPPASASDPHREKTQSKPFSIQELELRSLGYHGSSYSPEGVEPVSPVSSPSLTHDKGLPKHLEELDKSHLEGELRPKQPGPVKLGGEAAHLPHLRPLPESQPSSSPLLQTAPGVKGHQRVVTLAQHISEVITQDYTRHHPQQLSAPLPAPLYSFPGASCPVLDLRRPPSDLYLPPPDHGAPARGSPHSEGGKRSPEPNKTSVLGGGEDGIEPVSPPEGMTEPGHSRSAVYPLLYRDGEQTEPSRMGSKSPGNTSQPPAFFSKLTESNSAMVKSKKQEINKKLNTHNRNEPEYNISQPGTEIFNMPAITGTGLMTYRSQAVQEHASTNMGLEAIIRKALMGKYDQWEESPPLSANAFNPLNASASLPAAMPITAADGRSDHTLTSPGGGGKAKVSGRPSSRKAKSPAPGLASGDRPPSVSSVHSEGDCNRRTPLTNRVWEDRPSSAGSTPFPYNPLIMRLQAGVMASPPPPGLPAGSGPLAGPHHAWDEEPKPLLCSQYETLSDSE
Chain of Histone deacetylase 4 (P56524 whole entry, the tested form may be a part): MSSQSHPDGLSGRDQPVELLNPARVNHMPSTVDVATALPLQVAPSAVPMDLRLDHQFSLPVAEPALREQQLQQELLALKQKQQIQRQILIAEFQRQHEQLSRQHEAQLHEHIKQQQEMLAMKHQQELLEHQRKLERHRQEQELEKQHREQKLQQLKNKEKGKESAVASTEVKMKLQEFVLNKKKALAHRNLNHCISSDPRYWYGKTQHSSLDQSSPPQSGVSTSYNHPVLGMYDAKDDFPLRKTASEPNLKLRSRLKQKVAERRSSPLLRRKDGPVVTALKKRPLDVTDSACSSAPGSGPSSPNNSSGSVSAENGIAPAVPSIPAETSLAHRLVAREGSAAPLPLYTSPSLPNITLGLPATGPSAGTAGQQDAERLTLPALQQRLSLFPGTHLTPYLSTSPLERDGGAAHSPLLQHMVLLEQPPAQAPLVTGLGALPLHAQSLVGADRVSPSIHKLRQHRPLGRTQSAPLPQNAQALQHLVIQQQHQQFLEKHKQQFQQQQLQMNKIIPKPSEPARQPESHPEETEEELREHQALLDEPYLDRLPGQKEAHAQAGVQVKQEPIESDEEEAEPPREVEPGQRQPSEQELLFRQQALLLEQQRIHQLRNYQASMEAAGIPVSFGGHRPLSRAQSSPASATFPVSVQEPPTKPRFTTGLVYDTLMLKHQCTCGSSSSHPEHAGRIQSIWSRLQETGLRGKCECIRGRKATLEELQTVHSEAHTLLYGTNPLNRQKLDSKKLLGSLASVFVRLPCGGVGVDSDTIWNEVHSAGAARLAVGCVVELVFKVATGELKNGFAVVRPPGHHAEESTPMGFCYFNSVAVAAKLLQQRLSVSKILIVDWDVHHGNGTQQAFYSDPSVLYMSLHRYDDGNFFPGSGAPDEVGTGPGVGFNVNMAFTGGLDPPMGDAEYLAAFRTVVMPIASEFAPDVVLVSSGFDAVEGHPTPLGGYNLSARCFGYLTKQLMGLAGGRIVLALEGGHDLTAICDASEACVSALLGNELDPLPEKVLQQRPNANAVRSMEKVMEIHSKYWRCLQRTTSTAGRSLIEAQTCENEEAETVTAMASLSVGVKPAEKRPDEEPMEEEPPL

CC(C)(C)Nc1c(-c2cccc(-c3nc4cc(-c5noc(C(F)(F)F)n5)ccc4[nH]3)c2)nc2cnccn12
Activity [1]: Active | Activity [2]: Active | Activity [3]: Active | Activity [4]: Active | Activity [5]: Active | Activity [6]: Active | Activity [7]: Active | Activity [8]: Active | IC50 [9]: 307 nM | Activity [10]: Active | Activity [11]: Active | Activity [12]: Active | IC50 [13]: > 10 µM | Activity [14]: Active | Activity [15]: Active | Activity [16]: Active | Activity [17]: Active | Activity [18]: Active | Activity [19]: Active | IC50 [20]: > 10 µM | Activity [21]: Active | Activity [22]: Active | Activity [23]: Active | Activity [24]: Active | Activity [25]: Active | Activity [26]: Active | Ratio IC50 [27]: > 33 | Activity [28]: Active | IC50 [29]: > 10 µM | IC50 [30]: > 10 µM | IC50 [31]: 8 µM | Activity [32]: Active | Activity [33]: Active | Activity [34]: Active | IC50 [35]: > 10 µM
